According to US8404859B2, “Thiazole and thiophene compounds” (Hoffmann-La Roche Inc., priority 2011, dated 2013):

Legend:
[1] = target: sLFA-1/ICAM-1 (Homo sapiens, UniProt P05107+P20701, DEL701-769); experiment: sLFA-1/ICAM-1 ELISA; conditions: sLFA-1 coated plates, 5dICAM-Fc binding, read-out: LFA/ICAM (IC50)
Method: (§1) sLFA-1/ICAM-1 ELISA and Mac-1/ICAM-1 ELISA
(§2) Plates were coated with either 50 μl/well of 2.0 ug/ml solution of sLFA-1 or Mac-1 receptor in divalent cation buffer (1 mM MnCI2, 0.14M NaCl, 20 mM HEPES pH 7.2) at 4° C. overnight. Two hundred fifty μl of blocking buffer (1% BSA in divalent cation buffer) was added to each well 1 hour at 37° C. Plates were washed 3 times with wash buffer (TBS/0.05% Tween-20/1 mM MnCl2). The compound to be tested was solubilized in DMSO. A series of 1:3 dilutions were performed to achieve a concentration range of 0.45 nM-3 uM. Fifty μl of binding buffer (0.5% BSA in divalent cation buffer)/1% DMSO and 50 μl of the solutions to be tested were added to the appropriate wells and incubated for 1 hour. Fifty μl of 5dICAM-Fc (27 ng/ml) was added to the appropriate wells and 50 μl binding buffer was added to non-specific binding wells and incubated for 2 hours and washed. One hundred μl of 1:4000 HRP-goat anti-huIgG was added to each well and incubated for 1 hour and washed. One hundred μl of 1:1 TMB solution was added to each well and developed for 20 min at room temperature. Color development was stopped by adding 100 μl H3PO4 to each well. Absorbance was measured at 450 nm.

[2] = target: Mac-1/ICAM-1 (Homo sapiens, UniProt P05107+P11215); experiment: Mac-1/ICAM-1 ELISA; conditions: Mac-1 receptor coated plates, 5dICAM-Fc binding
Method: as §1, §2

Chain of sLFA-1/ICAM-1 (P20701 26-1090 limits assumed, stated change not applied): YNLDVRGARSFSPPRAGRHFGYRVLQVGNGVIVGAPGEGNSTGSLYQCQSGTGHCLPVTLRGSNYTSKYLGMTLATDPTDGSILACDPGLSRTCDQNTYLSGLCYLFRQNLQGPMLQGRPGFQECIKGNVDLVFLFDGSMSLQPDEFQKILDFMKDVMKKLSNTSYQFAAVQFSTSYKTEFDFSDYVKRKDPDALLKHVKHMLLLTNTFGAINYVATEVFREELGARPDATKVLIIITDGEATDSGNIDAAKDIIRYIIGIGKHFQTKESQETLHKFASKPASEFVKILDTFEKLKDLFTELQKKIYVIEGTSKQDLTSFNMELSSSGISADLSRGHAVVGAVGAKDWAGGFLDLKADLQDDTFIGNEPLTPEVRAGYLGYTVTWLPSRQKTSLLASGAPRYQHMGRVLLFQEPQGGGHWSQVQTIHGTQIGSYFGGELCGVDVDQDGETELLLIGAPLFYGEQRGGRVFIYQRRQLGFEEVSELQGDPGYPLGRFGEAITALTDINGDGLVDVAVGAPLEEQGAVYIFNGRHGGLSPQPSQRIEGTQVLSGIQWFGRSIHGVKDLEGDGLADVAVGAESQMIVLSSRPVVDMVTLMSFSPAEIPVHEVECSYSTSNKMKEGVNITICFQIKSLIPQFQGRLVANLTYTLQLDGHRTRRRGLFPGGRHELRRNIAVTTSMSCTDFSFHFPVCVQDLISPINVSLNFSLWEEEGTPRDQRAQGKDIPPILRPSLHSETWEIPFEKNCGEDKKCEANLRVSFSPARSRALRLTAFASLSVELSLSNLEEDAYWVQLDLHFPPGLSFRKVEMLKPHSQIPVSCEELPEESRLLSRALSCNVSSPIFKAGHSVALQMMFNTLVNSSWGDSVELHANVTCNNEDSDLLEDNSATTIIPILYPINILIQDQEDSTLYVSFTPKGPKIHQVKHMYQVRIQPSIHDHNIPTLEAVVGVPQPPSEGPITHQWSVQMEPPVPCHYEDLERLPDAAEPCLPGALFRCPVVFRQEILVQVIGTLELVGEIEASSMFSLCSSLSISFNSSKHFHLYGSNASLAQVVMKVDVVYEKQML
Chain of sLFA-1/ICAM-1 (P05107 23-700 limits assumed, stated change not applied): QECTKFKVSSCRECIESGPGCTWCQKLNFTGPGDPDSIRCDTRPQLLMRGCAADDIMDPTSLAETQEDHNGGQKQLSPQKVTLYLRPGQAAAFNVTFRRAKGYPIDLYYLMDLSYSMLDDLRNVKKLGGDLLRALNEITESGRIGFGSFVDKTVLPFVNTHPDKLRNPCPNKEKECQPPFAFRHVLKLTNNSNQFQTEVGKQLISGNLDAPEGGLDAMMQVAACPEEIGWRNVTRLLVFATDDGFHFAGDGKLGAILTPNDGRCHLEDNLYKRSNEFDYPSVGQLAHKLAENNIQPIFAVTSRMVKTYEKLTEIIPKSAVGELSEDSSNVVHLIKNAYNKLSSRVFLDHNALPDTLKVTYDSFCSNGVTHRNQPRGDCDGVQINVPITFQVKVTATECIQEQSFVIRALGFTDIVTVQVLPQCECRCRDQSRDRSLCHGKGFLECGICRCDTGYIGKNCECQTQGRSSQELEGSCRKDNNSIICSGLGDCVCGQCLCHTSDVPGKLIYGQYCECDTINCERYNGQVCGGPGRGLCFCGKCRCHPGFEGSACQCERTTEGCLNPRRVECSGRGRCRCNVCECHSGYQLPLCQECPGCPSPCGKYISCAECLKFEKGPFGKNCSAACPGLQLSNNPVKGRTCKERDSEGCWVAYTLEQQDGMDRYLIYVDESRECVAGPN
Chain of Mac-1/ICAM-1 (P05107 23-769, other chains not shown): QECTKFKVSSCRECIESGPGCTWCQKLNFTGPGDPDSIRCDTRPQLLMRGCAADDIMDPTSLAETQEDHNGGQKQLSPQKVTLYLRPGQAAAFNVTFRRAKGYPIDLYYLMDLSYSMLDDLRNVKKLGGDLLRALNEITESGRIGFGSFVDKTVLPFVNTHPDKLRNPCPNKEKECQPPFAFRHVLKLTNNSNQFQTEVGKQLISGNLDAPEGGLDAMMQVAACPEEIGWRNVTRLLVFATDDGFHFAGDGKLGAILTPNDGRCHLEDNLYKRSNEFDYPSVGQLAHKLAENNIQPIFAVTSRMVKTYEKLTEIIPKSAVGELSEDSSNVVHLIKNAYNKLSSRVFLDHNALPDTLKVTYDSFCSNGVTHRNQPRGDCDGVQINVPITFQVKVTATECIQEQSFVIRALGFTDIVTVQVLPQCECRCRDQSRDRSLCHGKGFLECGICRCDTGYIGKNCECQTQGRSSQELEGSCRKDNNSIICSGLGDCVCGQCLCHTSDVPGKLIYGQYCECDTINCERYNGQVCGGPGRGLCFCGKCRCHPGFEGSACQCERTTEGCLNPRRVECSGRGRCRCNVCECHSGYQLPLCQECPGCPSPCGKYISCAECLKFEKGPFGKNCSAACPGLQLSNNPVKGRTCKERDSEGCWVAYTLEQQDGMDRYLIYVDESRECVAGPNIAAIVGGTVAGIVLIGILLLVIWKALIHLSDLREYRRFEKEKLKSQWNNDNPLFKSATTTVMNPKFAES

Question: How did the IC50 [1] turn out when `Cc1nc(NC(=O)Cc2cccc(O)c2)sc1C(=O)N[C@@H](CNC(=O)c1cc(F)cc(F)c1)C(=O)O` [Example 1, (S)-3-(3,5-Difluoro-benzoylamino)-2-({2-[2-(3-hydroxy-phenyl)-acetylamino]-4-methyl-thiazole-5-carbonyl}-amino)-propionic acid] was run?
Answer: Its IC50 is 17 nM.

Question: Which results are given for `Cc1nc(NC(=O)Cc2cccc(O)c2)sc1C(=O)N[C@@H](CNC(=O)c1cccs1)C(=O)O` [Example 2, (S)-2-({2-[2-(3-Hydroxy-phenyl)-acetylamino]-4-methyl-thiazole-5-carbonyl}-amino)-3-[(thiophene-2-carbonyl)-amino]-propionic acid]?
Answer: IC50 [2]: 58 nM; IC50 [1]: 4 nM

Question: Which results are given for `O=C(Cc1cccc(O)c1)Nc1ncc(C(=O)N[C@@H](CNC(=O)c2cccs2)C(=O)O)s1` [Example 3, (S)-2-({2-[2-(3-Hydroxy-phenyl)-acetylamino]-thiazole-5-carbonyl}-amino)-3-[(thiophene-2-carbonyl)-amino]-propionic acid]?
Answer: IC50 [2]: > 3000 nM; IC50 [1]: 85 nM

Question: For `Cc1nc(NC(=O)Cc2cccc(O)c2)sc1C(=O)N[C@@H](CNC(=O)c1ccccc1)C(=O)O` [Example 4, (S)-3-Benzoylamino-2-([2-[2-(3-hydroxy-phenyl)-acetylamino]-4-methyl-thiazole-5-carbonyl]-amino)-propionic acid], which IC50 [1] is on record?
Answer: Its IC50 is 6 nM.

Question: Which IC50 [2] does the source give for `Cc1nc(NC(=O)Cc2cccc(O)c2)sc1C(=O)N[C@@H](CNC(=O)c1cccc(O)c1)C(=O)O` [Example 5, (S)-3-(3-Hydroxy-benzoylamino)-2-({2-[2-(3-hydroxy-phenyl)-acetylamino]-4-methyl-thiazole-5-carbonyl}-amino)-propionic acid] here?
Answer: The IC50 was 300 nM.

Question: And the IC50 [1]?
Answer: Its IC50 is 2 nM.

Question: For `Cc1nc(NC(=O)Cc2cccc(O)c2)sc1C(=O)N[C@@H](CNC(=O)c1cc(O)cc(O)c1)C(=O)O` [Example 6, (S)-3-(3,5-Dihydroxy-benzoylamino)-2-({2-[2-(3-hydroxy-phenyl)-acetylamino]-4-methyl-thiazole-5-carbonyl}-amino)-propionic acid], which IC50 [1] is on record?
Answer: The IC50 was 3 nM.

Question: `Cc1nc(NC(=O)Cc2cccc(O)c2)sc1C(=O)N[C@@H](CNC(=O)c1ccsc1)C(=O)O` [Example 7, (S)-2-({2-[2-(3-Hydroxy-phenyl)-acetylamino]-4-methyl-thiazole-5-carbonyl}-amino)-3-[(thiophene-3-carbonyl)-amino]-propionic acid] was tested. Which IC50 [2] did it give?
Answer: The IC50 was 30 nM.

Question: And the IC50 [1]?
Answer: The IC50 was 5 nM.

Question: How did the IC50 [2] turn out when `O=C(Cc1cccc(O)c1)Nc1nc(Cl)c(C(=O)N[C@@H](CNC(=O)c2cccs2)C(=O)O)s1` [Example 8, (S)-2-({4-Chloro-2-[2-(3-hydroxy-phenyl)-acetylamino]-thiazole-5-carbonyl}-amino)-3-[(thiophene-2-carbonyl)-amino]-propionic acid] was run?
Answer: Its IC50 is 32 nM.

Question: What about the IC50 [1] of the same molecule?
Answer: Its IC50 is 7 nM.

Question: For `O=C(Cc1cccc(O)c1)Nc1nc(C(F)(F)F)c(C(=O)N[C@@H](CNC(=O)c2cccs2)C(=O)O)s1` [Example 9, (S)-2-([2-[2-(3-Hydroxy-phenyl)-acetylamino]-4-trifluoromethyl-thiazole-5-carbonyl]-amino)-3-[(thiophene-2-carbonyl)-amino]-propionic acid], which IC50 [2] is on record?
Answer: Its IC50 is 82 nM.

Question: And the IC50 [1]?
Answer: The IC50 was 30 nM.

Question: With `Cc1nc(NC(=O)CCc2cccc(O)c2)sc1C(=O)N[C@@H](CNC(=O)c1cc(O)cc(O)c1)C(=O)O` [Example 10, (S)-3-(3,5-Dihydroxy-benzoylamino)-2-({2-[3-(3-hydroxy-phenyl)-propionylamino]-4-methyl-thiazole-5-carbonyl}-amino)-propionic acid] as the molecule, how does the IC50 [2] read?
Answer: The IC50 was 20 nM.

Question: And the IC50 [1]?
Answer: Its IC50 is 44 nM.

Question: `Cc1nc(NC(=O)CCc2cccc(O)c2)sc1C(=O)N[C@@H](CNC(=O)c1cccs1)C(=O)O` [Example 11, (S)-2-([2-[3-(3-Hydroxy-phenyl)-propionylamino]-4-methyl-thiazole-5-carbonyl]-amino)-3-[(thiophene-2-carbonyl)-amino]-propionic acid] was tested. Which IC50 [1] did it give?
Answer: The IC50 was 90 nM.

Question: How did the IC50 [2] turn out when `Cc1nc(NCCc2cccc(O)c2)sc1C(=O)N[C@@H](CNC(=O)c1cc(O)cc(O)c1)C(=O)O` [Example 12, (S)-3-(3,5-Dihydroxy-benzoylamino)-2-({2-[2-(3-hydroxy-phenyl)-ethylamino]-4-methyl-thiazole-5-carbonyl}-amino)-propionic acid] was run?
Answer: The IC50 was 27 nM.

Question: And the IC50 [1]?
Answer: The IC50 was 13 nM.

Question: Which IC50 [2] does the source give for `Cc1nc(OCCCc2cccc(O)c2)sc1C(=O)N[C@@H](CNC(=O)c1cccs1)C(=O)O` [Example 13, (S)-2-({2-[3-(3-Hydroxy-phenyl)-propoxy]-4-methyl-thiazole-5-carbonyl}-amino)-3-[(thiophene-2-carbonyl)-amino]-propionic acid] here?
Answer: The IC50 was > 3000 nM.

Question: And the IC50 [1]?
Answer: The IC50 was 52 nM.

Question: Which results are given for `Cc1nc(NC(=O)Cc2cccc3[nH]ncc23)sc1C(=O)N[C@@H](CNC(=O)c1cccs1)C(=O)O` [Example 14, (S)-2-{[2-(2-1H-Indazol-4-yl-acetylamino)-4-methyl-thiazole-5-carbonyl]-amino}-3-[(thiophene-2-carbonyl)-amino]-propionic acid]?
Answer: IC50 [2]: 89 nM; IC50 [1]: 8 nM

Question: With `Cc1nc(NC(=O)Cc2cccc3[nH]ncc23)sc1C(=O)N[C@@H](CNC(=O)c1cc(O)cc(O)c1)C(=O)O` [Example 15, (S)-3-(3,5-Dihydroxy-benzoylamino)-2-{[2-(2-1H-indazol-4-yl-acetylamino)-4-methyl-thiazole-5-carbonyl}-amino]-propionic acid] as the molecule, how does the IC50 [2] read?
Answer: The IC50 was 12 nM.

Question: What about the IC50 [1] of the same molecule?
Answer: Its IC50 is 3 nM.

Question: For `O=C(Cc1cccc2[nH]ncc12)Nc1nc(C(F)(F)F)c(C(=O)N[C@@H](CNC(=O)c2cccs2)C(=O)O)s1` [Example 16, (S)-2-{[2-(2-1H-Indazol-4-yl-acetylamino)-4-trifluoromethyl-thiazole-5-carbonyl]-amino}-3-[(thiophene-2-carbonyl)-amino]-propionic acid], which IC50 [1] is on record?
Answer: Its IC50 is 17 nM.

Question: How did the IC50 [1] turn out when `Cc1cc(C(=O)NC(C)c2cccc(O)c2)sc1C(=O)N[C@@H](CNC(=O)c1cccs1)C(=O)O` (stereo partly drawn) [Example 37, (S)-2-({5-[1-(3-hydroxy-phenyl)-ethylcarbamoyl]-3-methyl-thiophen-2-carbonyl}-amino)-3-[(thiophene-2-carbonyl)-amino]-propionic acid] was run?
Answer: The IC50 was 27 nM.

Question: `COc1cc(C(=O)NC[C@H](NC(=O)c2sc(C(=O)NCc3cccc(O)c3)cc2C)C(=O)O)nc(OC)n1` [Example 43, (S)-3-[(2,6-dimethoxy-pyrimidine-4-carbonyl)-amino]-2-{[5-(3-hydroxy-benzylcarbamoyl)-3-methyl-thiophene-2-carbonyl]-amino}-propionic acid] was tested. Which IC50 [1] did it give?
Answer: The IC50 was > 3000 nM.

Question: How did the IC50 [1] turn out when `Cc1cc(C(=O)NCc2cccc(O)c2)sc1C(=O)N[C@@H](CNC(=O)c1cccc2[nH]ncc12)C(=O)O` [Example 44, (S)-2-{[5-(3-hydroxy-benzylcarbamoyl)-3-methyl-thiophene-2-carbonyl]-amino}-3-[(1H-indazole-4-carbonyl)-amino]-propionic acid] was run?
Answer: Its IC50 is 17 nM.

Question: `Cc1cc(C(=O)NCc2cccc(O)c2)sc1C(=O)N[C@@H](CNC(=O)c1cnc(O)cn1)C(=O)O` [Example 45, (S)-2-{[5-(3-hydroxy-benzylcarbamoyl)-3-methyl-thiophene-2-carbonyl]-amino}-3-[(5-hydroxy-pyrazine-2-carbonyl)-amino]-propionic acid] was tested. Which IC50 [1] did it give?
Answer: Its IC50 is 763 nM.

Question: For `Cc1cc(C(=O)NCc2cccc(O)c2)sc1C(=O)N[C@@H](CNC(=O)c1cccc2[nH]cnc12)C(=O)O` [Example 46, (S)-3-[(1H-benzoimidazole-4-carbonyl)-amino]-2-{[5-(3-hydroxy-benzylcarbamoyl)-3-methyl-thiophene-2-carbonyl]-amino}-propionic acid], which IC50 [1] is on record?
Answer: The IC50 was 51 nM.

Question: Which IC50 [1] does the source give for `Cc1cc(C(=O)NCc2cccc(O)c2)sc1C(=O)N[C@@H](CNC(=O)c1cccc(C(=O)O)c1)C(=O)O` [Example 47, (S)-3-[(benzoic acid-3-carbonyl)-amino]-2-{[5-(3-hydroxy-benzylcarbamoyl)-3-methyl-thiophene-2-carbonyl]-amino}-propionic acid] here?
Answer: The IC50 was 289 nM.

Question: Which IC50 [1] does the source give for `Cc1cc(C(=O)NCCc2cccc(O)c2)sc1C(=O)N[C@@H](CNC(=O)c1cccs1)C(=O)O` [Example 48, (S)-2-({5-[2-(3-hydroxy-phenyl)ethyl-carbamoyl]-3-methyl-thiophen-2-carbonyl}-amino)-3-[(thiophene-2-carbonyl)-amino]-propionic acid] here?
Answer: Its IC50 is 85 nM.

Question: Which IC50 [1] does the source give for `O=C(NC[C@H](NC(=O)c1sc(C(=O)NCc2cccc(O)c2)cc1-c1ccccc1)C(=O)O)c1cccs1` [Example 53, (S)-2-{[5-(3-Hydroxy-benzylcarbamoyl)-3-phenyl-thiophene-2-carbonyl]-amino}-3-[(thiophene-2-carbonyl)-amino]-propionic acid] here?
Answer: Its IC50 is 1550 nM.

Question: With `N#Cc1cc(C(=O)NCc2cccc(O)c2)sc1C(=O)N[C@@H](CNC(=O)c1cccs1)C(=O)O` [Example 65, (S)-2-{[3-Cyano-5-(3-hydroxy-benzylcarbamoyl)-thiophene-2-carbonyl]-amino}-3-[(thiophene-2-carbonyl)-amino]-propionic acid] as the molecule, how does the IC50 [1] read?
Answer: The IC50 was 3 nM.

Question: For `N#Cc1cc(C(=O)NCc2cccc3[nH]ncc23)sc1C(=O)N[C@@H](CNC(=O)c1cc(O)cc(O)c1)C(=O)O` [Example 66, (S)-2-({3-Cyano-5-[(1H-indazol-4-ylmethyl)-carbamoyl]-thiophene-2-carbonyl}-amino)-3-(3,5-dihydroxy-benzoylamino)-propionic acid], which IC50 [1] is on record?
Answer: Its IC50 is 41 nM.
